Holding throughout (format): cell-based, human
One assay concerns NaV1.6. Put plainly: I-V protocol, whole-cell patch-clamp, NaV1.6. The note with it: Eo1a 10 μM. Here is the method: (§1) Human Embryonic Kidney (HEK) 293 cells stably expressing human NaV1.1 to NaV1.7/β1 (SB Drug Discovery, Glasgow, United Kingdom), Chinese Hamster Ovary (CHO) cells stably expressing human NaV1.8/β3 in a tetracycline-inducible system (ChanTest, Cleveland, OH, United States), and HEK293 cells stably expressing rat transient receptor potential vanilloid 1 (TRPV1) were cultured as previously described ([Yin et al., 2020]). Human KV2.1 and NaV1.7 mutants were transiently transfected into HEK293 cells stably expressing β1/β2 using Lipofectamine 2000 (Thermo Fisher Scientific, Scoresby, VIC, Australia) and used for patch-clamp experiments 48 h after transfection. Cells were grown in an incubator at 37°C with 5% CO2 and passaged every 3–4 d (at 70–80% confluency) using TrypLE Express (Thermo Fisher Scientific).
(§2) Automated whole-cell patch-clamp recordings were performed with a QPatch-16 automated electrophysiology platform (Sophion Bioscience, Ballerup, Denmark) using single-hole (QPlate 16 with a standard resistance of 2 ± 0.4 MΩ) or multi-hole (QPlate 16X with a standard resistance 0.2 ± 0.04 MΩ, NaV1.8 only) as previously described ([McMahon et al., 2020]).
The extracellular solution (ECS) consisted of (in mM) 145 NaCl (replaced with 70 choline chloride for NaV1.4, NaV1.5 and NaV1.7), 4 KCl, 2 CaCl2, 1 MgCl2, 10 HEPES, and 10 glucose, pH to 7.4 with NaOH (adjusted to 305 mOsm/L with sucrose). For NaV recordings the intracellular solution (ICS) consisted of (in mM) 140 CsF, 1 EGTA, 5 CsOH, 10 HEPES, and 10 NaCl, pH to 7.3 with CsOH (adjusted to 320 mOsm/L with sucrose). For KV2.1 recordings the ICS consisted of (in mM) 50 KCl, 60 KF, 10 EGTA, 10 HEPES, 10 NaCl pH to 7.3 with KOH (adjusted to 320 mOsm/L with sucrose). […]
(§3) The time constant of fast inactivation (τ) was computed by fitting the current decay traces with a single exponential function using QPatch Assay Software 5.6 (Sophion). The time to peak was calculated from pulse onset to peak inward current using QPatch Assay Software 5.6 (Sophion).

For a further assay, the system named is NaV1.7. The experiment in a line: I-V protocol, whole-cell patch-clamp, NaV1.7. The note with it: Eo1a 10 μM. Here is the method: as §1, §2
The extracellular solution (ECS) consisted of (in mM) 145 NaCl (replaced with 70 choline chloride for NaV1.4, NaV1.5 and NaV1.7), 4 KCl, 2 CaCl2, 1 MgCl2, 10 HEPES, and 10 glucose, pH to 7.4 with NaOH (adjusted to 305 mOsm/L with sucrose). For NaV recordings the intracellular solution (ICS) consisted of (in mM) 140 CsF, 1 EGTA, 5 CsOH, 10 HEPES, and 10 NaCl, pH to 7.3 with CsOH (adjusted to 320 mOsm/L with sucrose). For KV2.1 recordings the ICS consisted of (in mM) 50 KCl, 60 KF, 10 EGTA, 10 HEPES, 10 NaCl pH to 7.3 with KOH (adjusted to 320 mOsm/L with sucrose). TTX (1 μM) was added to the ECS for NaV1.8 recordings to inhibit background endogenous TTX sensitive current in CHO cells.
I-V curves were obtained with a holding potential of −90 mV followed by a series of 500 ms step pulses that ranged from −110 to +80 mV in 5-mV increments (repetition interval 5 s) before and after 5 min incubation with Eo1a (10 μM). Conductance-voltage (G-V) curves were obtained by calculating the conductance (G) at each voltage (V) using equation G = I/(V − V rev ), where V rev is the reversal potential. G-V curves were fitted with a Boltzmann equation. […]
as §3
For orientation: The patch-clamp technique gives a direct electrical read-out from membranes.

Assay [1] has as its system NaV1.7 with DIV S3-S4 loop of NaV1.8. Put plainly: Voltage-dependence of activation, NaV1.7/NaV1.8 chimera DIV S3-S4. The conditions noted are these: Eo1a 10 μM; NaV1.7 with NaV1.8 DIV S3-S4; HEK293 β1/β2, transient; mean ± SEM, n = 3–6 cells. How it is done:
as §1
Wild-type (WT) hNaV1.7 cDNA (NM_002,977, a gift from Dr James Cox, University College London) was subjected to in vitro site-directed mutagenesis using the QuikChange™ XL mutagenesis kit (Agilent Technologies) following the manufacturer’s instructions. NaV1.7 mutants were generated by substituting the domain II (DII) S1-S2 loop, the DII S3-S4 loop, the domain IV (DIV) S1-S2 loop and the DIV S3-S4 loop in NaV1.7 with the corresponding regions of NaV1.8. The mutations were verified by sequencing at the Brisbane node of the Australian Genome Research Facility. […]

Here are results for one molecule from article PMC8795738, “The Tarantula Venom Peptide Eo1a Binds to the Domain II S3-S4 Extracellular Loop of Voltage-Gated Sodium Channel NaV1.8 to Enhance Activation” (Frontiers in Pharmacology, 2022).

Where a SMILES comes first, the peptide text is derived from it. Bridges are numbered along the chain shown (N, C = ends).

`CC[C@H](C)[C@@H]1NC(=O)[C@H](CCCNC(=N)N)NC(=O)[C@@H]2CSSC[C@@H]3NC(=O)CNC(=O)CNC(=O)[C@H](CC(C)C)NC(=O)[C@H](Cc4ccccc4)NC(=O)[C@H](Cc4c[nH]c5ccccc45)NC(=O)[C@H](CCCNC(=N)N)NC(=O)[C@@H](NC(=O)[C@@H](N)CC(=O)O)CSSC[C@H](NC(=O)[C@H](CSSC[C@@H](C(=O)N[C@@H](C)C(=O)N[C@@H](Cc4c[nH]c5ccccc45)C(=O)N[C@@H](CC(=O)O)C(=O)NCC(=O)N[C@H](C(=O)N[C@@H](Cc4ccccc4)C(N)=O)[C@@H](C)O)NC(=O)[C@H](Cc4ccc(O)cc4)NC(=O)[C@H](CCCCN)NC(=O)[C@H]([C@@H](C)CC)NC(=O)[C@H](Cc4ccc(O)cc4)NC(=O)CNC(=O)[C@H](CC(=O)O)NC1=O)NC(=O)[C@H](CC(=O)O)NC(=O)[C@H](CO)NC(=O)[C@H](CC(=O)O)NC(=O)[C@H](CCCCN)NC(=O)[C@H](CO)NC3=O)C(=O)N[C@@H](CCCCN)C(=O)N[C@@H](Cc1c[nH]cn1)C(=O)N[C@@H](CC(C)C)C(=O)N[C@@H](C)C(=O)N2` [Eo1a] (H-DCRWFLGGCSKDSDCCKHLACRIDGYIKYCAWDGTF-NH2; disulfide 2-16, 9-21, 15-30 (inferred); N-terminus assumed): the V1/2 activation in the assay with NaV1.6 (5 min, control −22.7 ± 1.0 mV, *p < 0.05, mean ± SEM, n = 4–6) is recorded as −35.0 mV; in the assay on NaV1.7 (NaV1.7, 5 min, control −26.1 ± 1.5 mV, mean ± SEM, n = 4–6), −32.9 ± 2.9 mV. In addition, the “V1/2 inactivation (steady-state fast inactivation)” value is −56.2 ± 1.0 in the assay on NaV1.6 (5 min, control −56.3 ± 1.1 mV, mean ± SEM, n = 4–6) and −69.1 ± 4.3 in the assay with NaV1.7 (NaV1.7, 5 min, control −65.5 ± 1.4 mV, mean ± SEM, n = 4–6). In addition, the “effect on fast inactivation” value with NaV1.6 (test pulse −20 mV) is given as “delayed fast-inactivation”; in the assay on NaV1.7 (NaV1.7, test pulse −20 mV), “delayed fast-inactivation”. Besides, the “peak current I/I0” value with NaV1.7 (5 min, peak from I-V protocol at any voltage, normalised to buffer control, HEK293 hNaV1.7/β1, mean ± SEM, n = 4–6 cells) was found to be 0.63 ± 0.10. Also, the ΔV1/2 activation in assay [1] was −6.7 ± 0.5 mV.
